Columns and labels:
[1] = test system: DNA fragmentation induced by anti-APO-1; test: endonuclease-mediated DNA fragmentation induced by anti-APO-1, in the presence of Ca2+ channel blockers; type: cell-based; conditions: Ca2+ channel blocker at 50 μM
Procedure: CCRF-CEM.S2 cells (10^6 per milliliter) were incubated with MAb (1 μg/ml) in culture medium at 37° C. At various times, aliquots of 10^6 cells were removed and DNA was prepared.
SKW6.4 cells were either incubated with the isotype-matched control MAb FII20, FII23 (nonbinding MAb), or anti-APO-1 in microcultures for 24 hours before labeling with [^3 H]-thymidine for a further 4 hours. The data represent the mean of duplicate cultures with a variation of less than 5%. The cells were cultured in RPMI 1640 medium (Gibco, Grand Island, N.Y.), supplemented with 2 mM L-glutamine, streptomycin (100 μg/ml), penicillin (100 U/ml), 20 mM Hepes buffer pH 7.3, and 10% heat-inactivatedfetal bovine serum (Conco Lab-Division, Wiesbaden, FRG). For microcultures 1×10^4 cells per well were cultured in duplicates in flat bottom 96-well microtiter plates (Tecnomara, Fernwald, FRG) (200 μfinal volume per well). After 24 hours, the cells were labeled with 0.5 μCi of [^3 H]-thymidine (Amersham, Braunschweig, FRG)) for 4 hours. Before harvesting, the microcultures were examined by microscopic inspection. For DNA fragmentation 1×10^6 cells were washed with cold phosphate-buffered saline and disrupted with NTE buffer, pH 8 (100 mM NaCl, 10 mM Tris-HCl, 1 mM EDTA) containing 1% SDS and proteinase K (0.2 mg/ml). […]

[2] = test system: membrane blebbing induced by anti-APO-1; test: kinetics of membrane blebbing induced by anti-APO-1, in the presence of chelators; type: cell-based; conditions: 10 mM
From the text: The CCRF-CEM.S2 subclone was obtained by cloning cells under limiting dilution conditions from the CCRF-CEM T cell line at one cell per well in 96-well microtiter plates.

Row | Compound | inhibition of endonuclease-mediated DNA fragmentation induced by anti-APO-1 [1] | influence on kinetics of membrane blebbing induced by anti-APO-1 (within 30 minutes) [2]
1 | Furamicin | not inhibited | 
2 | COC(=O)C1=C(C)NC(C)=C(C(=O)OC)C1c1ccccc1[N+](=O)[O-] [Nifedipin] | not inhibited | 
3 | O=C(O)CN(CCOCCOCCN(CC(=O)O)CC(=O)O)CC(=O)O [EGTA] |  | not influenced
4 | O=C(O)CN(CCN(CC(=O)O)CC(=O)O)CC(=O)O [EDTA] |  | not influenced

— patent publication US5891434A, “Monoclonal antibodies to the APO-1 antigen” (Centocor, Inc., priority 1995, dated 1999)
